Data published in patent publication US20240238318A1, “L-FUCOSE AND ANTI-ANDROGEN RECEPTOR THERAPY FOR TREATMENT OF CANCER” (H. LEE MOFFITT CANCER CENTER AND RESEARCH INSTITUTE, INC., priority 2021, published 2024).

Tested on: tumor growth and metastasis
Assay: dietary L-fucose supplementation in mouse tumor models
Format: in vivo
From the text: Global fucosylation is reduced during progression in human melanomas (UEA1 fucose-binding lectin staining analysis of tumor microarray (TMA; n=˜300 patients)) via an ATF2-mediated transcriptional repression of fucokinase (FUK). However, AR transcriptionally upregulates Fucosyltransferase 4 (FUT4) expression via binding to the ARE motif in FUT4 promoter (FIG. 3). Additionally, the global tumor fucosylation is more pronounced in males relative to females (FIG. 4). […] Furthermore, the AR-FUT4 axis facilitates melanoma invasion via disrupting N-Cadherin/catenin junction complexes (FIG. 6). […] Thus, FUT4 is required for androgen-stimulated melanoma cell viability and motility (FIG. 7).

With C[C@H](O)[C@@H](O)[C@@H](O)[C@H](O)C=O [L-fucose] the “block of tumor growth and metastasis” value was greater than 50%.
